Results: ChEMBL document CHEMBL1201862, “PubChem BioAssay data set” (2004)
Active and inactive are the calls of the source. Unless noted, the rule behind the calls is not given here.

How the values were obtained:
[1] = molecular target: T1, Tyrosine-protein phosphatase non-receptor type 7 (Homo sapiens, UniProt P35236); experiment: redox-dependent HePTP inhibition, mechanism study, biochemical, fluorescence (AID 2068); type: functional
T1 sequence (P35236 whole entry): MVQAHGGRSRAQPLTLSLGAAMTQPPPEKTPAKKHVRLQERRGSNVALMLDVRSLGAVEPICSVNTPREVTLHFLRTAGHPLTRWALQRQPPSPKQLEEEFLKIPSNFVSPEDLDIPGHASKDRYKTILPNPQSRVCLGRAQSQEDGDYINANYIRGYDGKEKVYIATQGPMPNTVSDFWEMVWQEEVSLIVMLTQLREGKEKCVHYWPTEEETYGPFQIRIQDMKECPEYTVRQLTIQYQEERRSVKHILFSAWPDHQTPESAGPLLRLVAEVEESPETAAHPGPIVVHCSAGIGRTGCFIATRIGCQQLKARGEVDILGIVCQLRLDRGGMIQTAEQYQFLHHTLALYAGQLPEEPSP

[2] = molecular target: T2, G-protein coupled receptor 35 (Homo sapiens, UniProt Q9HC97); experiment: SAR Analysis for the identification of Selective Antagonists of ERK1/2 Activity in GPR35-Overexpressing U2OS Cells - Set 2. [Related pubchem assays (depositor defined):AID2058, AID2079]; type: functional, cell-based
[3] = molecular target: G-protein coupled receptor 55 (Homo sapiens, UniProt Q9Y2T6); experiment: SAR Analysis of Selective Antagonists of GPR55 using an Image-Based Assay - Set 3. [Related pubchem assays (depositor defined):AID2058, AID2079]; type: functional
[4] = molecular target: T2, G-protein coupled receptor 35; experiment: SAR analysis of Antagonists of the GPR35 Receptor using an Image-Based Assay - Set 5. [Related pubchem assays (depositor defined):AID2058, AID2079]; type: functional
Coagulation factor XII [5] = molecular target: T3, Coagulation factor XII (Homo sapiens, UniProt P00748); experiment: Factor XIIa Dose Response Confirmation from Single Well HTS. [Related pubchem assays (depositor defined):AID701]; type: functional
T3 sequence (P00748 whole entry): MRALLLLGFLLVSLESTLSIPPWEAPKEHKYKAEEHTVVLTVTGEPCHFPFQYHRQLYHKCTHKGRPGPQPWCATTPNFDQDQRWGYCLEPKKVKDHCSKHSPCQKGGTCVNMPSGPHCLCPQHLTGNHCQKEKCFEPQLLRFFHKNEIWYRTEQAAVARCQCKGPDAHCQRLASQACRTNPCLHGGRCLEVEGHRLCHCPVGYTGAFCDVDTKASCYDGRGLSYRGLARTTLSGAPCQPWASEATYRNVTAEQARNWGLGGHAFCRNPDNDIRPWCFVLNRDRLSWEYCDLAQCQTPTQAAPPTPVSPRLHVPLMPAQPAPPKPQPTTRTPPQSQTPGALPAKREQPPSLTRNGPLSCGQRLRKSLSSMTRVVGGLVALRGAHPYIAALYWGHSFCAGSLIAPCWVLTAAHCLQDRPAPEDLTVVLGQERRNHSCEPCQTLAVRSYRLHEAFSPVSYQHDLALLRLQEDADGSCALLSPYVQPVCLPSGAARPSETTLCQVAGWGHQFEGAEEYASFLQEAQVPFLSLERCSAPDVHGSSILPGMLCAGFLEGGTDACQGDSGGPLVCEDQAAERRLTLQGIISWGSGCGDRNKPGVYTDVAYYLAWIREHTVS

Coagulation factor XII [6] = molecular target: T3, Coagulation factor XII; experiment: FXIIa inhibitor potency, concentration-response, biochemical (AID 716); type: functional
Nonstructural protein 1 = Nonstructural protein 1 (Influenza A virus, UniProt Q194T2); type: functional, Influenza A virus (A/California/07/2009(H1N1))
Hexokinase HKDC1 = molecular target: T4, Hexokinase HKDC1 (Homo sapiens, UniProt Q2TB90); experiment: HKDC1 hexokinase inhibitors, dose response, biochemical, W721R variant (AID 504729); type: functional
T4 sequence (Q2TB90 whole entry): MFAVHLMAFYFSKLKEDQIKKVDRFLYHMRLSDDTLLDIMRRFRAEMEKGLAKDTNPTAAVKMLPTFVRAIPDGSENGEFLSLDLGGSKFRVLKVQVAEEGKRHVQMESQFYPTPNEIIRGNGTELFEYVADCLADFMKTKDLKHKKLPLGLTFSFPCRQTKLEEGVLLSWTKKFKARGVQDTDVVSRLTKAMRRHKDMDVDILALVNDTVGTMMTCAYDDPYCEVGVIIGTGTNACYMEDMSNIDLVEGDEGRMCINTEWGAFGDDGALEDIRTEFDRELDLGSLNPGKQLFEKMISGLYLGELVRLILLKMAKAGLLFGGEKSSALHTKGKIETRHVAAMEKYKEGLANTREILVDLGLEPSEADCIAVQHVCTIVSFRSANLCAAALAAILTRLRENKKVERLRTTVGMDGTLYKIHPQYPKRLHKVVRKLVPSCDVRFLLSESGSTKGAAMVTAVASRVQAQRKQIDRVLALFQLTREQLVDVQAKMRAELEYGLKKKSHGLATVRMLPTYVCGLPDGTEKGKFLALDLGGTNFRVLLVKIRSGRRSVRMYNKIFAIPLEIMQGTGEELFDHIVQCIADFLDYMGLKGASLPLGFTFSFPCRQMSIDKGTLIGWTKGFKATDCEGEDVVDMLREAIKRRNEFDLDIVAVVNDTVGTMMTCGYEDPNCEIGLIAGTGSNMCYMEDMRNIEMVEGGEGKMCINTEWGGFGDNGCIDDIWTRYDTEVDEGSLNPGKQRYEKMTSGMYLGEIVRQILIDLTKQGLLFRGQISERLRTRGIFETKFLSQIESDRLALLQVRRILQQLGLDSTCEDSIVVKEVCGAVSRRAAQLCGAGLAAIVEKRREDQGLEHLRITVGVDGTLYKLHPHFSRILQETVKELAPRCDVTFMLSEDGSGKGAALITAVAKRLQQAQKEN

[7] = molecular target: T5, Rac GTPase-activating protein 1 (Homo sapiens, UniProt Q9H0H5); experiment: MgcRacGAP GTPase-activating activity inhibitors, confirmation, biochemical, ADP Hunter fluorescence, primary and confirmatory (AID 624330); type: functional
T5 sequence (Q9H0H5 whole entry): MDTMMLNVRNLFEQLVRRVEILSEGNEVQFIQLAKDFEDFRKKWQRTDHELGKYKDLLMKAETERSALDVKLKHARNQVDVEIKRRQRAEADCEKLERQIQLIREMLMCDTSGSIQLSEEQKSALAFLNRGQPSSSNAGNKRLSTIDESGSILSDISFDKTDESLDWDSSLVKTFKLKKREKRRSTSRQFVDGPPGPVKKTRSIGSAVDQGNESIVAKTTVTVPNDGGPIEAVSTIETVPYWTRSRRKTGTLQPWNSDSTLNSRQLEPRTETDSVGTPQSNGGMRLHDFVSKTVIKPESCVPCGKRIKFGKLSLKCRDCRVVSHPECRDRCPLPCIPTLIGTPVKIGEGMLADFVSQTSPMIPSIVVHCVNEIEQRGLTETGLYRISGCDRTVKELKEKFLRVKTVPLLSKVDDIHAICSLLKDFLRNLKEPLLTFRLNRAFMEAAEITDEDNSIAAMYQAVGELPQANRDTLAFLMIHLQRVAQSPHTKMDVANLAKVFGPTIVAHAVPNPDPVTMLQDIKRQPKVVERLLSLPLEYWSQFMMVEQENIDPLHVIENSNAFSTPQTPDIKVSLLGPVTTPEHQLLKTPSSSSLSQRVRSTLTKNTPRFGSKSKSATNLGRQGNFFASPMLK

Hexokinase-1 = molecular target: T6, Hexokinase-1 (Homo sapiens, UniProt P19367); experiment: hexokinase 1 activators, dose response, selectivity assay for HKDC1 activator project, biochemical (AID 504762); type: functional
T6 sequence (P19367 whole entry): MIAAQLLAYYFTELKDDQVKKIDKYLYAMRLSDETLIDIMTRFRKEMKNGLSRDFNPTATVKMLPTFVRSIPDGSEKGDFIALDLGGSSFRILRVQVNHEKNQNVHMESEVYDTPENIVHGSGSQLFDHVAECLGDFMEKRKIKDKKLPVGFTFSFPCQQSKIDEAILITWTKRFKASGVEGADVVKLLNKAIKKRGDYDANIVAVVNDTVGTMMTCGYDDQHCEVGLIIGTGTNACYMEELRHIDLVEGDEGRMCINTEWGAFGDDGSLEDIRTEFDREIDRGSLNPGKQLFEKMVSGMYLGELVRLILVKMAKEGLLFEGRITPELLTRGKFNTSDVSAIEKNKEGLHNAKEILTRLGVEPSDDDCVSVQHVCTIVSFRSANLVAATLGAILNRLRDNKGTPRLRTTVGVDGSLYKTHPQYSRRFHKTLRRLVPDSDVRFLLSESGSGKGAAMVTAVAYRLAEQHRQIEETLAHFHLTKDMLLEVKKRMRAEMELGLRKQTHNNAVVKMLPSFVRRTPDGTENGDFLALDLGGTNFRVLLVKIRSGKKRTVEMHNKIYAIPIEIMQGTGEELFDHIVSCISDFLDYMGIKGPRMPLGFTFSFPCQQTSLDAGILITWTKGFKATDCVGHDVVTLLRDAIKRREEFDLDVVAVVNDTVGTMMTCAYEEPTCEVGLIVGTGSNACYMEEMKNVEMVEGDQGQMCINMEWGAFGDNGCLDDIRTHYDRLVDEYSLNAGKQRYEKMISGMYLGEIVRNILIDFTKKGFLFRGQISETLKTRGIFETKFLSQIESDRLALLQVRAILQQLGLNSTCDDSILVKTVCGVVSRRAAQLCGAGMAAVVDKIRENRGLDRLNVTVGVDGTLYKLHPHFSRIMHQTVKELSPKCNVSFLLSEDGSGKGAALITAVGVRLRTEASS

T2 sequence (Q9HC97 whole entry): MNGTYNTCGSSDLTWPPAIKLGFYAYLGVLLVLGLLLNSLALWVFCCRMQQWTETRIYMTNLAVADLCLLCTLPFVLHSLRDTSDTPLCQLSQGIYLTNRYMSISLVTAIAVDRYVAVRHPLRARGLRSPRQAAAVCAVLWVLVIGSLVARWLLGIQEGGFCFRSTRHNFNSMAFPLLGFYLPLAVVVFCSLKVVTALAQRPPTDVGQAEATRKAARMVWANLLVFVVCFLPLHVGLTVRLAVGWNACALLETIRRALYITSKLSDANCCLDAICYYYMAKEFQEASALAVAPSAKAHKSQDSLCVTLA
G-protein coupled receptor 55, sequence (Q9Y2T6 whole entry): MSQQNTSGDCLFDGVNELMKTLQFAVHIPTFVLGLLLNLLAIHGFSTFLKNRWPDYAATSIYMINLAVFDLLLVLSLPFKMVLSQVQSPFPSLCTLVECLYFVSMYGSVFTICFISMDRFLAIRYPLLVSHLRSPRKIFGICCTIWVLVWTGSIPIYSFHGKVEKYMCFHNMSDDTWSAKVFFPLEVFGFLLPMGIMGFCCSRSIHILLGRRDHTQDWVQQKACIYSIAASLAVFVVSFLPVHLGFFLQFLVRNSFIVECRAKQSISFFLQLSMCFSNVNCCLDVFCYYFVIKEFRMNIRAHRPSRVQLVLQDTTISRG
Nonstructural protein 1, sequence (Q194T2 whole entry): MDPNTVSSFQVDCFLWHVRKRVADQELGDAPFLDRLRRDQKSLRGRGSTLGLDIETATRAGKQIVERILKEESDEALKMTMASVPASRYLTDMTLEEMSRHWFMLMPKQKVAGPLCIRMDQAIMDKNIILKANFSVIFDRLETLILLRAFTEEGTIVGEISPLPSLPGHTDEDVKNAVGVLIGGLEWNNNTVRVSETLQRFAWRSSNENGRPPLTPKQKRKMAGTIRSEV

O=C(Nc1ccc2nc(-c3ccco3)c(-c3ccco3)nc2c1)NC1CCCC1
IC50 [1]: 1.1 µM (active)

COC(=O)c1cnn(-c2ccc(Cl)cc2)c1/C=N/NC(=S)Nc1ccccc1
IC50 [2]: 21.8 µM (inactive) | IC50 [3]: > 32 µM (inactive) | IC50 [4]: 0.211 µM (active)

Cc1ccc(C(=O)n2nnc3ccccc32)cc1
IC50 (Coagulation factor XII [5]): 2.29 µM (active)

CCCCC1(CC)C(=O)NC(=O)N=C1Nc1ccc(OC)cc1 (stereo not given)
IC50 (Coagulation factor XII [6]): > 50 µM (inactive)

Oc1ccc(/C=N/NC(=S)Nc2cccnc2)c(O)c1
IC50 (Nonstructural protein 1): 1.82 µM (active) | IC50 (Hexokinase HKDC1): > 80 µM (inactive) | IC50 [7]: 40.5 µM (active) | EC50 (Hexokinase-1): > 80 µM (inactive)
